What was measured:
Assay type in all cases: functional
Details in all cases: read-out: IZ
Micrococcus luteus [1] = assay: Antibacterial activity against Micrococcus luteus at 30000 ppm after 24 hrs by agar diffusion method
Escherichia coli [2] = assay: Antibacterial activity against Escherichia coli at 50000 ppm after 24 hrs by agar diffusion method
Escherichia coli [3] = assay: Antibacterial activity against Escherichia coli at 30000 ppm after 24 hrs by agar diffusion method
Staphylococcus aureus [4] = assay: Antibacterial activity against Staphylococcus aureus at 30000 ppm after 24 hrs by agar diffusion method
Bacillus subtilis [5] = assay: Antibacterial activity against Bacillus subtilis at 30000 ppm after 24 hrs by agar diffusion method
Micrococcus luteus [6] = assay: Antibacterial activity against Micrococcus luteus at 50000 ppm after 24 hrs by agar diffusion method
Bacillus subtilis [7] = assay: Antibacterial activity against Bacillus subtilis at 50000 ppm after 24 hrs by agar diffusion method
Bacillus subtilis [8] = assay: Antibacterial activity against Bacillus subtilis at 10000 ppm after 24 hrs by agar diffusion method
Staphylococcus aureus [9] = assay: Antibacterial activity against Staphylococcus aureus at 10000 ppm after 24 hrs by agar diffusion method
Staphylococcus aureus [10] = assay: Antibacterial activity against Staphylococcus aureus at 50000 ppm after 24 hrs by agar diffusion method
Bacillus cereus [11] = assay: Antibacterial activity against Bacillus cereus at 30000 ppm after 24 hrs by agar diffusion method
Bacillus cereus [12] = assay: Antibacterial activity against Bacillus cereus at 10000 ppm after 24 hrs by agar diffusion method
Pseudomonas aeruginosa [13] = assay: Antibacterial activity against Pseudomonas aeruginosa at 50000 ppm after 24 hrs by agar diffusion method
Pseudomonas aeruginosa [14] = assay: Antibacterial activity against Pseudomonas aeruginosa at 30000 ppm after 24 hrs by agar diffusion method
Kocuria rosea [15] = assay: Antibacterial activity against Micrococcus roseus at 30000 ppm after 24 hrs by agar diffusion method
Micrococcus luteus [16] = assay: Antibacterial activity against Micrococcus luteus at 10000 ppm after 24 hrs by agar diffusion method
Kocuria rosea [17] = assay: Antibacterial activity against Micrococcus roseus at 10000 ppm after 24 hrs by agar diffusion method
Bacillus cereus [18] = assay: Antibacterial activity against Bacillus cereus at 50000 ppm after 24 hrs by agar diffusion method
Pseudomonas aeruginosa [19] = assay: Antibacterial activity against Pseudomonas aeruginosa at 10000 ppm after 24 hrs by agar diffusion method
Escherichia coli [20] = assay: Antibacterial activity against Escherichia coli at 10000 ppm after 24 hrs by agar diffusion method
Kocuria rosea [21] = assay: Antibacterial activity against Micrococcus roseus at 50000 ppm after 24 hrs by agar diffusion method

Compound | zone of inhibition at 30000 ppm (Micrococcus luteus [1]) | zone of inhibition at 50000 ppm (Escherichia coli [2]) | zone of inhibition at 30000 ppm (Escherichia coli [3]) | zone of inhibition at 30000 ppm (Staphylococcus aureus [4]) | zone of inhibition at 30000 ppm (Bacillus subtilis [5]) | zone of inhibition at 50000 ppm (Micrococcus luteus [6]) | zone of inhibition at 50000 ppm (Bacillus subtilis [7]) | zone of inhibition at 10000 ppm (Bacillus subtilis [8]) | zone of inhibition at 50000 ppm (Staphylococcus aureus [10]) | zone of inhibition at 30000 ppm (Bacillus cereus [11]) | zone of inhibition at 10000 ppm (Bacillus cereus [12]) | zone of inhibition at 50000 ppm (Pseudomonas aeruginosa [13]) | zone of inhibition at 30000 ppm (Pseudomonas aeruginosa [14]) | zone of inhibition at 30000 ppm (Kocuria rosea [15]) | zone of inhibition at 10000 ppm (Micrococcus luteus [16]) | zone of inhibition at 10000 ppm (Kocuria rosea [17]) | zone of inhibition at 50000 ppm (Bacillus cereus [18]) | zone of inhibition at 10000 ppm (Pseudomonas aeruginosa [19]) | zone of inhibition at 10000 ppm (Escherichia coli [20]) | zone of inhibition at 50000 ppm (Kocuria rosea [21]) | other results
N#Cc1[nH]/c(=N/c2nc3ccccc3[nH]2)[nH]c1N | 7 mm | 19 mm | 13 mm | 7 mm | 11 mm | 9 mm | 16 mm | 8 mm | 7 mm | 10 mm | 6 mm | 9 mm | 8 mm | 7 mm | 4 mm | 4 mm | 14 mm | 6 mm | 8 mm | 9 mm | zone of inhibition at 10000 ppm (Staphylococcus aureus [9]): 3 mm
CC1(C)[C@@H]2CC[C@@]1(C)C1(C2)NC(N)=Nc2nc3ccccc3n21 (some centres not stated) | – | 12 mm | 9 mm | 3 mm | 5 mm | – | 6 mm | 3 mm | 8 mm | – | – | – | – | 2 mm | – | – | 4 mm | – | 4 mm | 5 mm | –
CC1=NN(c2ccccc2)C2(C1)NC(N)=Nc1nc3ccccc3n12 (configuration not stated) | 9 mm | 16 mm | 13 mm | – | 3 mm | 11 mm | 9 mm | – | 4 mm | – | – | 6 mm | 4 mm | 3 mm | 5 mm | – | 4 mm | – | 8 mm | 8 mm | –
NC1=NC2(CCCC2)n2c(nc3ccccc32)N1 | 7 mm | 20 mm | 17 mm | 4 mm | 12 mm | 12 mm | 15 mm | 9 mm | 6 mm | 5 mm | – | 5 mm | – | 3 mm | 7 mm | – | 9 mm | – | 12 mm | 8 mm | –
Nc1c[nH]/c(=N/c2nc3ccccc3[nH]2)[nH]1 | 4 mm | 14 mm | 8 mm | 9 mm | – | 8 mm | 6 mm | – | 15 mm | – | – | 9 mm | 7 mm | 8 mm | – | 6 mm | 4 mm | 4 mm | 3 mm | 12 mm | zone of inhibition at 10000 ppm (Staphylococcus aureus [9]): 4 mm
NC1=Nc2nc3ccccc3n2C2(NC(=O)CC(=O)N2)N1 | 4 mm | 15 mm | 11 mm | 5 mm | 10 mm | 6 mm | 14 mm | 6 mm | 8 mm | 4 mm | 1 mm | 9 mm | 6 mm | 4 mm | – | 1 mm | 7 mm | 2 mm | 8 mm | 7 mm | –
Clc1c[nH]/c(=N/c2nc3ccccc3[nH]2)[nH]1 | – | 18 mm | 13 mm | 5 mm | 10 mm | 4 mm | 14 mm | 6 mm | 9 mm | – | – | 2 mm | – | 3 mm | – | – | 6 mm | – | 9 mm | 8 mm | –
Cc1c[nH]/c(=N/c2nc3ccccc3[nH]2)[nH]1 | 7 mm | 8 mm | 4 mm | 3 mm | 13 mm | 8 mm | 15 mm | 10 mm | 6 mm | 9 mm | 6 mm | 7 mm | 4 mm | 7 mm | 6 mm | 5 mm | 12 mm | – | 1 mm | 9 mm | –
Oc1c[nH]/c(=N/c2nc3ccccc3[nH]2)[nH]1 | 5 mm | 13 mm | 8 mm | 7 mm | – | 9 mm | 7 mm | – | 13 mm | 5 mm | – | 11 mm | 8 mm | 6 mm | – | – | 10 mm | 5 mm | 6 mm | 8 mm | zone of inhibition at 10000 ppm (Staphylococcus aureus [9]): 2 mm
NC1=NC2(CCCCC2)n2c(nc3ccccc32)N1 | 7 mm | 18 mm | 15 mm | – | 11 mm | 12 mm | 13 mm | 7 mm | 5 mm | 4 mm | – | 5 mm | 4 mm | – | 7 mm | – | 9 mm | – | 12 mm | 5 mm | –
c1ccc(-c2c[nH]/c(=N/c3nc4ccccc4[nH]3)[nH]2)cc1 | – | 8 mm | 6 mm | 5 mm | 11 mm | 3 mm | 14 mm | 9 mm | 9 mm | 8 mm | 6 mm | 11 mm | 6 mm | 8 mm | – | 3 mm | 9 mm | 4 mm | 4 mm | 10 mm | –
NC1=Nc2nc3ccccc3n2C2(NC(=O)CS2)N1 (configuration not stated) | 3 mm | 8 mm | 5 mm | 5 mm | 13 mm | 7 mm | 16 mm | 9 mm | 8 mm | 8 mm | 6 mm | 11 mm | 8 mm | 7 mm | – | 4 mm | 11 mm | 5 mm | – | 10 mm | zone of inhibition at 10000 ppm (Staphylococcus aureus [9]): 3 mm
